Measured values reported in BindingDB's records for doi:10.1016/j.chembiol.2011.05.012 (University of Bern, 2011).
Several values for one entry are separate records, joined by “and”; a condition that tells them apart may be missing. Equal values may be shown once.

Legend:
Cannabinoid receptor 2 = Cannabinoid receptor 2 (Homo sapiens, UniProt P34972); assay: Binding Assay
Text: (§1) Binding assay with hCB1 and hCB2 receptors.

Cannabinoid receptor 1 = Cannabinoid receptor 1 (Homo sapiens, UniProt P21554); assay: Binding Assay
Text: as §1

Chain of Cannabinoid receptor 1 (P21554 whole entry): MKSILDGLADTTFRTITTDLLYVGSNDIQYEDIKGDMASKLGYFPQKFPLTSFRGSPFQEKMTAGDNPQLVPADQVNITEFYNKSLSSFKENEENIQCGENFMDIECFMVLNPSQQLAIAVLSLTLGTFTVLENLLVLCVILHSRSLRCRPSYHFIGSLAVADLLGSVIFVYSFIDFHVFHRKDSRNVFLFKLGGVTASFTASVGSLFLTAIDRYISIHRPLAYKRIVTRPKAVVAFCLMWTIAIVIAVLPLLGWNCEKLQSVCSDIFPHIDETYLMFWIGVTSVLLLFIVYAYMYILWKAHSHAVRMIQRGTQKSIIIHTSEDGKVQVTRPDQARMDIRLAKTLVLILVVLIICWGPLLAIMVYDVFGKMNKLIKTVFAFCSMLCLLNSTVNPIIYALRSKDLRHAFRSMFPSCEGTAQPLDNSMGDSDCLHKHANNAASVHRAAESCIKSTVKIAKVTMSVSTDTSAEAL
Chain of Cannabinoid receptor 2 (P34972 whole entry): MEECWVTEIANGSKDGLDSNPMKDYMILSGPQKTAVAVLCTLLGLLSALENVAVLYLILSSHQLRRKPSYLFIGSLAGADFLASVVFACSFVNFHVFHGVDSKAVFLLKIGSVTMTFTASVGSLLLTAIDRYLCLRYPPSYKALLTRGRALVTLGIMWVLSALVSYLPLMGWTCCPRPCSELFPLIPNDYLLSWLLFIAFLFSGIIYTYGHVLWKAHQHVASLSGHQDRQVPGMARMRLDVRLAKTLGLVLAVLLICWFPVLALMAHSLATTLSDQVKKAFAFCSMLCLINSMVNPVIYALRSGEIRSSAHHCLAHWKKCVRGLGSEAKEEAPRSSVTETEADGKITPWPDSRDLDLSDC

SMILES	Ki (Cannabinoid receptor 2)	Ki (Cannabinoid receptor 1) [nM]
CCCc1ccc(O)c(-c2ccc(OC)c(CCC)c2)c1	74 nM	> 2000
CC(Br)Cc1ccc(O)c(-c2ccc(O)c(CC(C)Br)c2)c1 (stereo unspecified) [Magreth-12b]	680 nM	> 5000
CCCCC/C=C/C/C=C/C/C=C/C/C=C/CCCC(=O)OC(CO)CO [2-Arachidonoylglycerol, 2-AG]	892 nM	–
C=CCc1ccc(OCC)c(-c2ccc(O)c(CC=C)c2)c1 [Magreth-16a]	51 nM	–
C=CCc1ccc(O)c(-c2ccc(OC)c(CC=C)c2)c1 [Magreth-14a]	43.9 nM and 138 nM	790
C=CCc1ccc(O)c(-c2ccc(OC)c(CC(C)Br)c2)c1 (stereo unspecified) [Magreth-11b]	84 nM	860
CCCc1ccc(O)c(-c2ccc(O)c(CCC)c2)c1	1300 nM	> 5000
C=CCc1ccc(O)c(-c2ccc(OCC)c(CC=C)c2)c1 [Magreth-16b]	40 nM	970
C=CCc1ccc(OCCC)c(-c2ccc(O)c(CC=C)c2)c1 [Magreth-17a]	57 nM	> 5000
C=CCc1ccc(O)c(-c2ccc(OCCCCC)c(CC=C)c2)c1 [Magreth-18b]	> 3000 nM	> 5000
C=CCc1ccc(O)c(-c2ccc(OCCC)c(CC=C)c2)c1 [Magreth-17b]	46 nM	> 5000
C=CCc1ccc(OCC)c(-c2ccc(OCC)c(CC=C)c2)c1 [Magreth-19]	134 nM	> 3000
C=CCc1ccc(O)c(-c2cc(CC=C)ccc2O)c1 [2-(2-hydroxy-5-prop-2-enylphenyl)-4-prop-2-enylphenol]	> 2000 nM	–
C=CCc1cc(-c2cc(CC(C)Br)ccc2O)ccc1OC (stereo unspecified) [Magreth-11a]	1080 nM	> 5000
C=CCc1ccc(O)c(-c2ccc(OC)c(/C=C/C)c2)c1 [Magreth-3a]	40.8 nM and 59.1 nM	> 5000
C=CCc1cc(-c2cc(CC(C)Br)ccc2O)ccc1O (stereo unspecified) [Magreth-12a]	1260 nM	> 5000
COc1ccc(-c2cc(CC(C)Br)ccc2O)cc1CC(C)Br (stereo unspecified) [Magreth-11c]	427 nM	> 5000
C=CCc1ccc(O)c(-c2ccc(O)c(CC=C)c2)c1 [3',5-diallylbiphenyl-2,4'-diol]	1760 nM	–
C=CCc1ccc(O)c(-c2ccc(O)c(/C=C/C)c2)c1 [Magreth-4]	1760 nM	> 5000
C=CCc1ccc(OCCCCC)c(-c2ccc(O)c(CC=C)c2)c1 [Magreth-18a]	102 nM	> 5000
